Test results taken from the AptaBench aptamer set (doi:10.1093/nar/gkaf219).
One block for each molecule: values may come before it.

How the values were obtained:
Settings in all cases: 10 mM Tris-HCl, pH 7.4
[1] = system: DNA aptamer or structured DNA CTTACGACTAGGTGTGGGTCGGCCATTAGTGGAGGGTAGTCGTAAG
[2] = system: DNA aptamer or structured DNA GGGACGACGGTTGGCTTGGGTCGGGTGTGGGTGCGGCGTCGTCCC
[3] = system: DNA aptamer or structured DNA GGGACGACAGAGGTTAGGTGTAGGTTTTTGGGTCCTGTCGTCCC
[4] = system: DNA aptamer or structured DNA CTTACGACTAGTTCGGATAAGGGGTAGGTGTGGTTGTGGTCGTAAG
[5] = system: DNA aptamer or structured DNA CTTACGACGTAGCTTCGGGTGTTCTGGGTGAGCTCTGCGTCGTAAG
[6] = system: DNA aptamer or structured DNA CTTACGACATGGGATGTGTAGTTAGTGGTCGGATCCGAGTCGTAAG
[7] = system: DNA aptamer or structured DNA CTTACGACACAGGGTGTGTTGTGCTCAGTGGTGTATGTGTCGTAAG
[8] = system: DNA aptamer or structured DNA GGGACGACGGCACGAGGTTATTCGTTGGTTGCACTGCGCTGGGAGGTAGTCGTCCC
[9] = system: DNA aptamer or structured DNA CTTACGACTAGGTGGGGGTCGGCCATGGGAGTGGGGTAGTCGTAAG
[10] = system: DNA aptamer or structured DNA TTCAAATCTTGGTACGTTCTGCCTTTTCTTATTTTGCTTTGGGTTACCTAGTCTAGATTTGAA
[11] = system: DNA aptamer or structured DNA TTCAAATCTGAGCAGCCTAGTTACTGACGGGTTTATAGTACTCGTATTGAGTCTAGATTTGAA
[12] = system: DNA aptamer or structured DNA CTTACGACTTGTTCTGAGGGTCAACGGTGGTGTAGTTAGTCGTAAG
[13] = system: DNA aptamer or structured DNA CTTACGACTAGTTCCGGGTAGGGGTAGGTGTGGTTGTGGTCGTAAG
[14] = system: DNA aptamer or structured DNA CTTACGACTAGTGGAGTAGGGTCGGGTAGTGGGCCTCAGTCGTAAG
[15] = system: DNA aptamer or structured DNA CTTACGACACATTTGGGTATTCTGGGTGAGCTGTGTCGTAAG
[16] = system: DNA aptamer or structured DNA CTTACGACGTGTGCTGTTGGTTCTAGGGTTAGGATGGCGTCGTAAG
[17] = system: DNA aptamer or structured DNA CTTACGACGGGGGTGTGGCTAGGGGTGGCGCGGGATCCGTCGTAAG
[18] = system: DNA aptamer or structured DNA TTCAAATCTCGCGCAGGTAGGGGTGTAGGTGTGGGGGTAAGTCTAGATTTGAA
[19] = system: DNA aptamer or structured DNA GGGACGACGGGATTCGGATCGTGGAACAGTGCCTCGTCGTCGTCCC
[20] = system: DNA aptamer or structured DNA CTTACGACTTTGGTTTCCTCGATTCGCATGGGTGGTAAGTCGTAAG
[21] = system: DNA aptamer or structured DNA CTTACGACGGGTGGGGAGGCCCTCTAGTTGGGAACGGTGTCGTAAG
[22] = system: DNA aptamer or structured DNA CTTACGACGTTGGGCTTATTAGGGGCTGGAGTGGGTGAGTCGTAAG
[23] = system: DNA aptamer or structured DNA GGGACGACGAGGGGATCCATCCAATGGGGTTTGTATACGTCGTCCC
[24] = system: DNA aptamer or structured DNA CTTACGACACACGGTGTGGATGAGGTGGGCTAATAGGGGTCGTAAG
[25] = system: DNA aptamer or structured DNA GGGACGACTGCTTGGGTAGGTCGGGCTTGGGTTCGGCGGTCGTCCC
[26] = system: DNA aptamer or structured DNA CTTACGACTAGTTCCGGGTAGGGGTAGGCGTGGTTGTGGTCGTAAG
[27] = system: DNA aptamer or structured DNA CTTACGACACTGGCAGGAGGGTCGGGTGTGGGAACGTGGTCGTAAG
[28] = system: DNA aptamer or structured DNA CTTACGACACAGGGCGTGGAGTGGCTGGGCTTCAAGGGGTCGTAAG
[29] = system: DNA aptamer or structured DNA CTTACGACGGGTGCCGTTGGTTCTAGGGGTAGGATGGCGTCGTAAG
[30] = system: DNA aptamer or structured DNA CTTACGACATGGGATGTGTAGTTAGTGGTCGGATCCGGGTCGTAAG
[31] = system: DNA aptamer or structured DNA TTCAAATCTGGTGCCCTTTCGCAGTCGGTTGGTAATGAGATCACTTTAGAGTCTAGATTTGAA
[32] = system: DNA aptamer or structured DNA TTCAAATCTGAGCAGCCTAGTTACTGACGGGTTTATAGTACTCACATTGAGTCTAGATTTGAA
[33] = system: DNA aptamer or structured DNA CTTACGACCTGCTCTGAGGGTCAACGGTGGTGTAGTCGGTCGTAAG
[34] = system: DNA aptamer or structured DNA CTTACGACAATCTTTTGGGTGTTCTGGGTGAGGTGTTTGTCGTAAG
[35] = system: DNA aptamer or structured DNA CTTACGACTAGGCGGGGGTCGGCCACCGAGGTGGGGTAGTCGTAAG
Throughout, for binding call: call rule not given here.

Structure (SMILES): CCN(CC)CCOC(=O)c1ccc(N)cc1
binding call [1]: no binding | binding call [2]: no binding | binding call [3]: no binding | binding call [4]: binds | binding call [5]: no binding | binding call [6]: no binding | binding call [7]: no binding | binding call [8]: no binding | binding call [9]: no binding | binding call [10]: no binding | binding call [11]: no binding | binding call [12]: no binding | binding call [13]: binds | binding call [14]: no binding | binding call [15]: no binding | binding call [16]: binds | binding call [17]: binds | binding call [18]: no binding | binding call [19]: no binding | binding call [20]: no binding | binding call [21]: no binding | binding call [22]: no binding | binding call [23]: binds | binding call [24]: no binding | binding call [25]: binds | binding call [26]: binds | binding call [27]: no binding | binding call [28]: binds | binding call [29]: no binding

Structure (SMILES): COC(=O)[C@@H]1C2CCC(C[C@@H]1OC(=O)c1ccccc1)N2C (some centres not stated)
Kd [1]: 735 nM | binding call [2]: no binding | binding call [3]: no binding | Kd [4]: 192 nM | Kd [5]: 833 nM | Kd [30]: 127 nM | binding call [7]: no binding | binding call [8]: no binding | Kd [9]: 270 nM | binding call [10]: no binding | binding call [11]: no binding | Kd [12]: 22 nM | Kd [13]: 61 nM | binding call [14]: no binding | Kd [15]: 602 nM | Kd [16]: 98 nM | Kd [17]: 185 nM | binding call [18]: no binding | binding call [32]: no binding | binding call [19]: no binding | Kd [20]: 239 nM | Kd [33]: 189 nM | Kd [34]: 378 nM | binding call [21]: no binding | Kd [22]: 617 nM | binding call [23]: binds | Kd [24]: 69 nM | binding call [25]: no binding | Kd [26]: 70 nM | binding call [27]: no binding | Kd [28]: 123 nM | Kd [35]: 315 nM | Kd [29]: 1350 nM

Structure (SMILES): COc1ccc2c3c1O[C@H]1C(=O)CC[C@@]4(O)[C@@H](C2)N(C)CC[C@]314
binding call [1]: no binding | binding call [2]: no binding | binding call [3]: no binding | binding call [4]: no binding | binding call [30]: no binding | binding call [6]: no binding | binding call [9]: no binding | binding call [12]: no binding | binding call [13]: no binding | binding call [15]: no binding | binding call [16]: no binding | binding call [17]: no binding | binding call [18]: no binding | binding call [20]: no binding | binding call [33]: no binding | binding call [34]: no binding | binding call [22]: no binding | binding call [25]: no binding | binding call [26]: binds | binding call [28]: no binding | binding call [35]: no binding

Structure (SMILES): NCCc1c[nH]c2ccc(O)cc12
binding call [1]: no binding | binding call [3]: no binding | binding call [4]: binds | binding call [5]: no binding | binding call [30]: no binding | binding call [6]: no binding | binding call [31]: no binding | binding call [8]: no binding | binding call [9]: no binding | binding call [10]: no binding | binding call [11]: no binding | binding call [12]: no binding | binding call [13]: binds | binding call [15]: no binding | binding call [16]: binds | binding call [17]: binds | binding call [18]: no binding | binding call [32]: no binding | binding call [20]: no binding | binding call [33]: no binding | binding call [34]: no binding | binding call [22]: no binding | binding call [23]: binds | binding call [24]: no binding | binding call [26]: no binding | binding call [28]: no binding | binding call [35]: no binding | binding call [29]: binds

Now from value to molecule:

binding call [1]: no binding | binding call [4]: no binding | binding call [5]: no binding | binding call [30]: no binding | binding call [6]: binds | binding call [31]: no binding | binding call [8]: binds | binding call [9]: no binding | binding call [10]: no binding | binding call [11]: binds | binding call [12]: no binding | binding call [13]: no binding | binding call [15]: binds | binding call [16]: binds | binding call [17]: binds | binding call [32]: no binding | binding call [20]: no binding | binding call [33]: no binding | binding call [34]: binds | binding call [22]: no binding | binding call [23]: binds | binding call [24]: no binding | binding call [26]: binds | binding call [28]: no binding | binding call [35]: no binding | binding call [29]: binds
Structure (SMILES): NCCc1ccc(O)c(O)c1

binding call [1]: no binding | binding call [5]: no binding | binding call [6]: no binding | binding call [9]: no binding | binding call [12]: no binding | binding call [13]: no binding | binding call [15]: no binding | binding call [17]: no binding | binding call [33]: no binding | binding call [34]: no binding | binding call [22]: no binding | binding call [24]: no binding | binding call [28]: no binding | binding call [35]: no binding | binding call [29]: no binding
Structure (SMILES): CC(C)Cc1ccc(C(C)C(=O)O)cc1 (configuration not stated)
